Conditions: minipig, in vivo

SMILES | oral bioavailability, expressed as the systemic exposure to ketoprofen relative to intravenous ketoprofen [%] | oral bioavailability, expressed as the systemic exposure to diclofenac relative to intravenous diclofenac [%]
CC(C(=O)OCCCCCCO[N+](=O)[O-])c1cccc(C(=O)c2ccccc2)c1 (stereo not drawn) [Compound of formula Ic] | 82 | 
O=C(Cc1ccccc1Nc1c(Cl)cccc1Cl)OCCCCO[N+](=O)[O-] [Compound of formula Ig] |  | 85
CC(C(=O)OCc1ccc(CO[N+](=O)[O-])cc1)c1cccc(C(=O)c2ccccc2)c1 (stereo not drawn) [Compound of formula If] | 80 | 

Reference: patent US20040096494A1, “Composition” (priority 2003, published 2004)
